Converted amounts (≈) assume the structure as drawn. Read-outs that look alike come from different tables or passages of the source. Marks after values point to notes of the source that are not given here.
Key:
Aspergillus fumigatus = experiment: Antifungal susceptibility testing, broth dilution (MIC/MFC); assay type: cell-based; conditions: Aspergillus fumigatus; for MIC: read-out: MIC
Summary of the method: (§1)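 Tested against two isolates per species (one for C. glabrata). After MIC, fungicidal concentration determined by plating 0.1 μl from MIC and each higher concentration.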

Candida glabrata = experiment: as above; assay type: cell-based; conditions: Nakaseomyces glabratus; C. glabrata; read-out: MIC
Summary of the method: as §1

Candida albicans = experiment: as above; assay type: cell-based; conditions: Candida albicans; C. albicans 90028; read-out: MIC
Summary of the method: as §1

[1] = system: HL-60 (Mitoxantrone-Sensitive) human acute promyelocytic leukemia; experiment: Drug resistant cell line pair, cytotoxicity (Example 10B); assay type: cell-based; conditions: HL-60 Sensitive
From the text: (§2) 2) Human Acute Promyelocytic Leukemia Cell Line Pair: HL-60 (Mitoxantrone-Sensitive) and HL-60/MX-2 (Mitoxantrone-Resistant)

HT-29 human colon tumor = experiment: HT-29 Human Colon Tumor Xenograft Model; assay type: in vivo
Method: (§3) Selected novel compounds were administered as monotherapy via the intraperitoneal (i.p.) route at the doses indicated for the individual study; for the combination studies the selected reference chemotherapy agents were injected 15-30 min prior to the compound.
(§4) Saline dilutions are used to achieve the injection concentrations used for the reference compounds.
Animals were implanted subcutaneously (s.c.) by trocar with fragments of HT-29 tumors harvested from s.c. growing tumors in nude mice hosts. When the tumor size reached 5 mm×5 mm (about 10-17 days) the animals were matched into treatment and control groups. Mice were weighed twice weekly and tumor measurements were obtained using calipers twice weekly, starting on Day 1. The tumor measurements were converted to estimated mg tumor weight using the formula (W^2×L)/2. When the estimated tumor weight of the control group reached an average of 1000 mg the mice were weighed, sacrificed and the tumor removed.

[2] = system: HL-60/MX-2 (Mitoxantrone-Resistant); experiment: Drug resistant cell line pair, cytotoxicity (Example 10B); assay type: cell-based, human; conditions: Homo sapiens, HL60/MX2; HL-60 Resistant (HL-60/MX-2)
From the text: as §2

[3] = system: MES-SA (Taxol Sensitive) human uterine sarcoma; experiment: as above; assay type: cell-based
From the text: (§5) 1) Human Uterine Sarcoma Tumor Cell Line Pair: MES-SA (Taxol Sensitive) and MES-SA/Dx5 (Taxol Resistant).

[4] = system: MES-SA/Dx5 (Taxol Resistant) human uterine sarcoma; experiment: as above; assay type: cell-based
From the text: as §5

HuVEC = experiment: Action on microtubule function, α-tubulin staining; conditions: 2 μM, thirty minutes exposure
MCF-7 human breast tumor = experiment: MCF-7 Human Breast Tumor Xenograft Model; assay type: in vivo, nude mice; conditions: in combination with taxotere
Method: Animals used were (exceptions are indicated for individual studies): female nude mice (nu/nu) between 5 and 6 weeks of age (˜20 g, Harlan); group size was 9-10 mice per group unless otherwise indicated.
as §3, §4
Female nude mice (˜20 g) were implanted s.c. with 21-day release estrogen (0.25 mg) pellets 24 hours prior to the s.c. implantation with MCF-7 tumor fragments (harvested from s.c. tumors in nude mice hosts). The study then proceeded as described for the HT-29 model, using taxotere as the standard chemotherapy agent.
In this model unless otherwise noted for the individual study, the novel compounds were injected via the intraperitoneal route daily on Days 1-5, inclusive (qdx5); taxotere was administered intravenously on Days 1, 3 and 5 (qodx3).
The doses of the compounds were administered on Days 1, 2, 3, 4, and 7; Taxotere was administered on Days 1, 3 and 7.

[5] = system: PC3 (human prostate tumor); experiment: Tumor panel screen cytotoxicity (Example 10A); assay type: cell-based; conditions: PC-3 Prostate
From the text: (§6) Cells were maintained at subconfluent densities in their respective culture media.

[6] = Tumor panel screen cytotoxicity (Example 10A); assay type: cell-based, human; conditions: human, CCD-27sk normal fibroblast cells; CCD-27sk Fibroblast; maximum cytotoxic effect
From the text: as §6

[7] = system: OVCAR-3 (human ovarian tumor); experiment: Tumor panel screen cytotoxicity (Example 10A); assay type: cell-based; conditions: OVCAR-3 Ovary
From the text: as §6

[8] = system: MDA-MB-231 (human breast tumor); experiment: Tumor panel screen cytotoxicity (Example 10A); assay type: cell-based; conditions: MDA-MB-231 Breast
From the text: as §6

HT29 (human colon tumor) = experiment: Tumor panel screen cytotoxicity (Example 10A); assay type: cell-based; conditions: HT-29 Colon
From the text: as §6

[9] = system: NCI-H292 (human non-small cell lung tumor); experiment: Tumor panel screen cytotoxicity (Example 10A); assay type: cell-based
From the text: as §6

[10] = system: CCD-27sk (normal human fibroblast); experiment: Tumor panel screen cytotoxicity (Example 10A); assay type: cell-based; conditions: Homo sapiens; CCD-27sk Fibroblast
From the text: as §6

[11] = system: B16-F10 (murine melanoma); experiment: Tumor panel screen cytotoxicity (Example 10A); assay type: cell-based
From the text: as §6

MAP-rich microtubules = experiment: Microtubule mean length distributions, transmission electron microscopy; assay type: biochemical, bovine; conditions: in words
Method: Transmission electron microscopy was used to determine the mean length distribution of microtubules in the absence or presence of tested agent. At 75 minutes and prior to sedimentation, 10 μl aliquots from the polymer mass experiments were fixed by dilution into 290 μl PEM100-buffered 0.2% glutaraldehyde. Thirty microliters of fixed sample was settled onto formvar-coated 150 ICG mesh electron microscope grids for 90 seconds. Excess sample was wicked off with Whatman filter paper. Thirty microliters of cytochrome C (1 mg/ml) was applied for 30 seconds to enhance protofilament resolution and facilitate negative staining. Uranyl acetate (1.5%) was applied for 20 seconds and the excess was wicked off Grids were viewed in a Jeol electron microscope-1200 EX11 at 2000× and 30,000× magnification. The Zeiss MOPIII was used to determine microtubule length distributions and mean lengths for at least 100 microtubules per sample.

[12] = system: MCF7 cells, GFP-alpha-tubulin; experiment: Analysis of microtubule dynamics, time-lapse microscopy; assay type: cell-based, human
[13] = system: MCF7 human breast carcinoma cells; experiment: Mitotic progression (mitotic index); assay type: cell-based; conditions: 20 hours, read-out: Mitotic block Ave. IC50 ± sd
Method: The fraction of cells in mitosis at a given drug concentration (mitotic index) was determined in the breast cancer cell line MCF7. Cells were plated at a density of 3×10^4 cells/ml in six-well plates. After 24 hours, cells were incubated in the absence or presence of drug over a range of concentrations (1 nM to 1 μM) for 20 hours. […] Cells were fixed with 10% formalin in PBS overnight at 37° C., permeabilized in methanol for 10 minutes, and stained with 4,6-diamidino-phenylindole (DAPI) to visualize nuclei. Stained cells were spread on coverslips in Vectashield mounting media (Burlingame, Calif.) and sealed onto slides with nail polish. Fluorescence microscopy was used to determine mitotic indices.

[14] = Table 28, concentration effecting 25% of the maximal mitotic block
[15] = Table 29, concentration effecting 50% of the maximal mitotic block

With `CC(C)(C)c1[nH]cnc1/C=C1\NC(=O)[C@H](Cc2ccccc2)NC1=O` [t-butyl-phenylahistin] the MIC (Aspergillus fumigatus; A. fumigatus isolate #1) was > 16 µg/mL, the MFC (Aspergillus fumigatus; A. fumigatus isolate #2) was 0.125 µg/mL (≈ 0.369 µM) and the MIC (Aspergillus fumigatus; A. fumigatus isolate #2) was < 0.03 µg/mL. For the same molecule, the MIC (Candida glabrata) was > 32 µg/mL, the MIC (Candida albicans) was > 32 µg/mL and the IC50 [1] was 255 nM. For the same molecule, the “Comments (combination with CPT-11)” value (HT-29 human colon tumor; NPI compound + CPT-11 100 ip qwx3, study and dose as in the line) was “Synergy”, the “NPI-Compound Result TGI %” value (HT-29 human colon tumor; Study 2139, monotherapy 30 mg/kg ip q3dx5) was “No Effect” and the “Combination Results TGI %” value (HT-29 human colon tumor; Study 2139, t-butyl-phenylahistin 30 mg/kg ip q3dx5 + CPT-11 100 ip qwx3) was 77.7 *, # %. For the same molecule, the “Exceed NCI Criterion (TGI ≧ 58%)” value (HT-29 human colon tumor; which treatment group exceeds the criterion, NPI compound, CPT-11 100 ip qwx3 or combination, study and dose as in the line) was “Combination”, the IC50 [2] was 175 nM and the IC50 ([3]; Homo sapiens, MES-SA, CsA Pretreat, Studies II-III in separate lines) was 162 nM. For the same molecule, the IC50 ([3]; Homo sapiens, MES-SA, No CsA, Studies I-III in separate lines) was 144 nM, the IC50 ([3]; No CsA, Studies I-III in separate lines) was 122 nM and the IC50 ([4]; Homo sapiens, MES-SA/Dx5, MES-SA/DX5 Resistant, CsA Pretreat, Studies II-III in separate lines) was 622 nM. The IC50 ([4]; Homo sapiens, MES-SA/Dx5, MES-SA/DX5 Resistant, No CsA, Studies I-III in separate lines) was 825 nM, the IC50 ([4]; MES-SA/DX5 Resistant, No CsA, Studies I-III in separate lines) was 694 nM and the “potency in the resistant MES-SA/DX5 line vs the sensitive line” value ([4]; in words) was “only slightly reduced”. For the same molecule, the “microtubule depolymerization in HuVEC cells” value (HuVEC) was “induced microtubule depolymerization”, the “effect on estimated tumor growth” value (MCF-7 human breast tumor) was “significant potentiation of taxotere” and the IC50 ([5]; Homo sapiens) was 174 nM. For the same molecule, the “% Cytotoxicity Mean” value ([5]; maximum cytotoxic effect) was 59.5%, the cytotoxicity at 48 h [6] was 45% and the IC50 ([7]; Homo sapiens) was > 20000 nM. The “% Cytotoxicity Mean” value ([7]; maximum cytotoxic effect) was 37%, the IC50 ([8]; Homo sapiens) was 387 nM and the “% Cytotoxicity Mean” value ([8]; maximum cytotoxic effect) was 65.5%. The “% Cytotoxicity Mean” value (HT29 (human colon tumor); maximum cytotoxic effect) was 88%, the IC50 (HT29 (human colon tumor); Homo sapiens) was 420 nM and the IC50 ([9]; Homo sapiens) was 384 nM. For the same molecule, the “% Cytotoxicity Mean” value ([9]; maximum cytotoxic effect) was 65%, the IC50 [10] was > 20000 nM and the IC50 ([11]; Mus musculus) was 736 nM. The “% Cytotoxicity Mean” value ([11]; maximum cytotoxic effect) was 74%.

In the case of `COc1ccc(/C=C\c2cc(OC)c(OC)c(OC)c2)cc1O` [CA4, Combretastatin A4], the MT nucleation (MAP-rich microtubules) is reported as “did not affect MT nucleation”, the “% time spent, Attenuation” value [12, 14] is reported as 39.50% and the “% time spent, Growth” value [12, 14] is reported as 35.31%. The “% time spent, Shortening” value [12, 14] was 25.19%, the “Freq. of Catastrophe” value [12, 14] was 1.52 min⁻¹ and the “Freq. of Rescue” value [12, 14] was 1.90 min⁻¹. The “Mean duration, Attenuation” value [12, 14] was 0.45 min, the “Mean duration, Growth” value [12, 14] was 0.27 min and the “Mean duration, Shortening” value [12, 14] was 0.21 min. For the same molecule, the “Mean rates, Growth” value [12, 14] was 10.59 μm/min, the “Mean rates, Shortening” value [12, 14] was 40.21 μm/min and the Dyn. ([12]; Table 28, dynamicity, concentration effecting 25% of the maximal mitotic block) was 13.87 μm/min. The “% time spent, Attenuation” value [12, 15] was 36.23%, the “% time spent, Growth” value [12, 15] was 43.64% and the “% time spent, Shortening” value [12, 15] was 20.13%. The Dynamicity [12, 15] was 10.91 μm/min, the “Freq. of Catastrophe” value [12, 15] was 1.09 min⁻¹ and the “Freq. of Rescue” value [12, 15] was 2.79 min⁻¹. For the same molecule, the “Mean duration, Attenuation” value [12, 15] was 0.55 min, the “Mean duration, Growth” value [12, 15] was 0.33 min and the “Mean duration, Shortening” value [12, 15] was 0.22 min. For the same molecule, the “Mean rates, Growth” value [12, 15] was 11.21 μm/min, the “Mean rates, Shortening” value [12, 15] was 29.88 μm/min and the MT dynamic instability ([12]; concentrations effecting 25% or 50% of maximal mitotic block) was “did not have a measurable effect on MT dynamic instability”. It also gave an IC50 [13] of 5.4 ± 0.7 nM.
